According to US9499550B2 (BRISTOL-MYERS SQUIBB COMPANY, priority 2012, dated 2016):

Key:
[1] = tested on: HCV genotype 1b (Con1) replicon in HUH-7 cells; assay: HCV replicon luciferase reporter assay, genotype 1b; type: cell-based; details: Hepatitis C virus, Huh-7, 72 h, HCV genotype 1b replicon luciferase, 3 days incubation, read-out: LE_1b (EC50, range)
How it was run: (§1)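 Replicon inhibition for both genotypes was measured as Renilla luciferase signal (EnduRen, 7.5 μM final, 2 h) after 3-day, 37° C exposure of replicon-bearing HUH-7 cells in 4% FCS DMEM, 0.5% DMSO. The 1b construct carries S1179I; the 1a H77 construct carries P1496L and S2204I. Twenty-point, 3-fold dilutions were fitted four-parametrically for EC50, and CC50 was taken from multiplexed Cell Titer-Blue.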

[2] = tested on: HCV genotype 1a (H77 strain) replicon in HUH-7 cells; assay: HCV replicon luciferase reporter assay, genotype 1a; type: cell-based; details: Hepatitis C virus, Huh-7, 72 h, HCV genotype 1a replicon luciferase, 3 days incubation, read-out: LE_1a (EC50, range)
How it was run: as §1

| Structure (SMILES) | EC50 [1] [nM] | EC50 [2] [nM] |
| --- | --- | --- |
| CC[C@@H]1C[C@@H](C)CC/C=C\[C@@H]2C[C@@]2(C(=O)NS(=O)(=O)C2CC2)NC(=O)[C@@H]2C[C@@H](Oc3nccc4cc(OC)c(F)cc34)CN2C(=O)[C@H]1NC(=O)OC(C)(C)C(C)(F)F [Compound 5472, 3,3-difluoro-2-methylbutan-2-yl((2R,6S,7R,9S,13aS,14aR,16aS,Z)-14a-((cyclopropylsulfonyl)carbamoyl)-7-ethyl-2-((7-fluoro-6-methoxyisoquinolin-1-yl)oxy)-9-methyl-5,16-dioxo-1,2,3,5,6,7,8,9,10,11,13a,14,14a,15,16,16a-hexadecahydrocyclopropa[e]pyrrolo[1,2-a][1,4]diazacyclopentadecin-6-yl)carbamate] | 1.01 to 5 | 1.01 to 5 |
| CC[C@@H]1C[C@H](C)CC/C=C\[C@@H]2C[C@@]2(C(=O)NS(=O)(=O)C2CC2)NC(=O)[C@@H]2C[C@@H](Oc3nccc4cc(OC)c(F)cc34)CN2C(=O)[C@H]1NC(=O)OC(C)(C)C(C)(F)F [Compound 5473, 3,3-difluoro-2-methylbutan-2-yl((2R,6S,7R,9R,13aS,14aR,16aS,Z)-14a-((cyclopropylsulfonyl)carbamoyl)-7-ethyl-2-((7-fluoro-6-methoxyisoquinolin-1-yl)oxy)-9-methyl-5,16-dioxo-1,2,3,5,6,7,8,9,10,11,13a,14,14a,15,16,16a-hexadecahydrocyclopropa[e]pyrrolo[1,2-a][1,4]diazacyclopentadecin-6-yl)carbamate] | 0.1 to 0.5 | 1.01 to 5 |
| COc1ccc2c(O[C@@H]3C[C@H]4C(=O)N[C@]5(C(=O)NS(=O)(=O)C6CC6)C[C@H]5/C=C\CC[C@H](C)C[C@@H](C)[C@H](NC(=O)OC(C)(C)C(C)(F)F)C(=O)N4C3)nc(-c3ccc(OC(C)C)cn3)cc2c1 [Compound 5474, 3,3-difluoro-2-methylbutan-2-yl((2R,6S,7R,9S,13aS,14aR,16aS,Z)-14a-((cyclopropylsulfonyl)carbamoyl)-2-((3-(5-isopropoxypyridin-2-yl)-6-methoxyisoquinolin-1-yl)oxy)-7,9-dimethyl-5,16-dioxo-1,2,3,5,6,7,8,9,10,11,13a,14,14a,15,16,16a-hexadecahydrocyclopropa[e]pyrrolo[1,2-a][1,4]diazacyclopentadecin-6-yl)carbamate] | 1.01 to 5 | 1.01 to 5 |
| COc1ccc2c(O[C@@H]3C[C@H]4C(=O)N[C@]5(C(=O)NS(=O)(=O)C6CC6)C[C@H]5/C=C\CC[C@@H](C)C[C@@H](C)[C@H](NC(=O)OC(C)(C)C(C)(F)F)C(=O)N4C3)nc(-c3ccc(OC(C)C)cn3)cc2c1 [Compound 5475, 3,3-difluoro-2-methylbutan-2-yl((2R,6S,7R,9R,13aS,14aR,16aS,Z)-14a-((cyclopropylsulfonyl)carbamoyl)-2-((3-(5-isopropoxypyridin-2-yl)-6-methoxyisoquinolin-1-yl)oxy)-7,9-dimethyl-5,16-dioxo-1,2,3,5,6,7,8,9,10,11,13a,14,14a,15,16,16a-hexadecahydrocyclopropa[e]pyrrolo[1,2-a][1,4]diazacyclopentadecin-6-yl)carbamate] | 0.51 to 1 | 0.51 to 1 |
| COc1ccc2c(O[C@@H]3C[C@H]4C(=O)N[C@]5(C(=O)NS(=O)(=O)C6(C)CC6)C[C@H]5/C=C\CC[C@H](C)C[C@@H](C)[C@H](NC(=O)OC(C)(C)C(C)(F)F)C(=O)N4C3)nc(-c3ccc(OC(C)C)cn3)cc2c1 [Compound 5476, 3,3-difluoro-2-methylbutan-2-yl((2R,6S,7R,9S,13aS,14aR,16aS,Z)-2-((3-(5-isopropoxypyridin-2-yl)-6-methoxyisoquinolin-1-yl)oxy)-7,9-dimethyl-14a-(((1-methylcyclopropyl)sulfonyl)carbamoyl)-5,16-dioxo-1,2,3,5,6,7,8,9,10,11,13a,14,14a,15,16,16a-hexadecahydrocyclopropa[e]pyrrolo[1,2-a][1,4]diazacyclopentadecin-6-yl)carbamate] | 1.01 to 5 | 5.01 to 35 |
| COc1ccc2c(O[C@@H]3C[C@H]4C(=O)N[C@]5(C(=O)NS(=O)(=O)C6(C)CC6)C[C@H]5/C=C\CC[C@@H](C)C[C@@H](C)[C@H](NC(=O)OC(C)(C)C(C)(F)F)C(=O)N4C3)nc(-c3ccc(OC(C)C)cn3)cc2c1 [Compound 5477, 3,3-difluoro-2-methylbutan-2-yl((2R,6S,7R,9R,13aS,14aR,16aS,Z)-2-((3-(5-isopropoxypyridin-2-yl)-6-methoxyisoquinolin-1-yl)oxy)-7,9-dimethyl-14a-(((1-methylcyclopropyl)sulfonyl)carbamoyl)-5,16-dioxo-1,2,3,5,6,7,8,9,10,11,13a,14,14a,15,16,16a-hexadecahydrocyclopropa[e]pyrrolo[1,2-a][1,4]diazacyclopentadecin-6-yl)carbamate] | 1.01 to 5 | 1.01 to 5 |
| CC[C@@H]1C[C@H](C)CC/C=C\[C@@H]2C[C@@]2(C(=O)NS(=O)(=O)C2CC2)NC(=O)[C@@H]2C[C@@H](Oc3nc(-c4ccc(OC(C)C)cn4)cc4cc(OC)ccc34)CN2C(=O)[C@H]1NC(=O)OC(C)(C)C [Compound 5479, tert-butyl ((2R,6S,7R,9R,13aS,14aR,16aS,Z)-14a-((cyclopropylsulfonyl)carbamoyl)-7-ethyl-2-((3-(5-isopropoxypyridin-2-yl)-6-methoxyisoquinolin-1-yl)oxy)-9-methyl-5,16-dioxo-1,2,3,5,6,7,8,9,10,11,13a,14,14a,15,16,16a-hexadecahydrocyclopropa[e]pyrrolo[1,2-a][1,4]diazacyclopentadecin-6-yl)carbamate] | 0.51 to 1 | 1.01 to 5 |
| CC[C@@H]1C[C@H](C)CC/C=C\[C@@H]2C[C@@]2(C(=O)NS(=O)(=O)C2(C)CC2)NC(=O)[C@@H]2C[C@@H](Oc3nc(-c4ccc(OC(C)C)cn4)cc4cc(OC)ccc34)CN2C(=O)[C@H]1NC(=O)OC(C)(C)C [Compound 5481, tert-butyl ((2R,6S,7R,9R,13aS,14aR,16aS,Z)-7-ethyl-2-((3-(5-isopropoxypyridin-2-yl)-6-methoxyisoquinolin-1-yl)oxy)-9-methyl-14a-(((1-methylcyclopropyl)sulfonyl)carbamoyl)-5,16-dioxo-1,2,3,5,6,7,8,9,10,11,13a,14,14a,15,16,16a-hexadecahydrocyclopropa[e]pyrrolo[1,2-a][1,4]diazacyclopentadecin-6-yl)carbamate] | 1.01 to 5 | 1.01 to 5 |
| CC[C@@H]1C[C@H](C)CC/C=C\[C@@H]2C[C@@]2(C(=O)NS(=O)(=O)C2CC2)NC(=O)[C@@H]2C[C@@H](Oc3nc(-c4ccc(OC(C)C)cn4)cc4cc(OC)ccc34)CN2C(=O)[C@H]1NC(=O)OC(C)(C)C(C)(F)F [Compound 5483, 3,3-difluoro-2-methylbutan-2-yl((2R,6S,7R,9R,13aS,14aR,16aS,Z)-14a-((cyclopropylsulfonyl)carbamoyl)-7-ethyl-2-((3-(5-isopropoxypyridin-2-yl)-6-methoxyisoquinolin-1-yl)oxy)-9-methyl-5,16-dioxo-1,2,3,5,6,7,8,9,10,11,13a,14,14a,15,16,16a-hexadecahydrocyclopropa[e]pyrrolo[1,2-a][1,4]diazacyclopentadecin-6-yl)carbamate] | 1.01 to 5 | 1.01 to 5 |
| CC[C@@H]1C[C@H](C)CC/C=C\[C@@H]2C[C@@]2(C(=O)NS(=O)(=O)C2CC2)NC(=O)[C@@H]2C[C@@H](Oc3nc(-c4ccc(OC(C)C)cn4)cc4cc(OC)ccc34)CN2C(=O)[C@H]1NC(=O)OC(C)(C)C(F)(F)F [Compound 5485, 1,1,1-trifluoro-2-methylpropan-2-yl((2R,6S,7R,9R,13aS,14aR,16aS,Z)-14a-((cyclopropylsulfonyl)carbamoyl)-7-ethyl-2-((3-(5-isopropoxypyridin-2-yl)-6-methoxyisoquinolin-1-yl)oxy)-9-methyl-5,16-dioxo-1,2,3,5,6,7,8,9,10,11,13a,14,14a,15,16,16a-hexadecahydrocyclopropa[e]pyrrolo[1,2-a][1,4]diazacyclopentadecin-6-yl)carbamate] | 1.01 to 5 | 1.01 to 5 |
| CC[C@@H]1C[C@H](C)CC/C=C\[C@@H]2C[C@@]2(C(=O)NS(=O)(=O)C2(C)CC2)NC(=O)[C@@H]2C[C@@H](Oc3nc(-c4ccc(OC(C)C)cn4)cc4cc(OC)ccc34)CN2C(=O)[C@H]1NC(=O)OC(C)(C)C(C)(F)F [Compound 5487, 3,3-difluoro-2-methylbutan-2-yl((2R,6S,7R,9R,13aS,14aR,16aS,Z)-7-ethyl-2-((3-(5-isopropoxypyridin-2-yl)-6-methoxyisoquinolin-1-yl)oxy)-9-methyl-14a-(((1-methylcyclopropyl)sulfonyl)carbamoyl)-5,16-dioxo-1,2,3,5,6,7,8,9,10,11,13a,14,14a,15,16,16a-hexadecahydrocyclopropa[e]pyrrolo[1,2-a][1,4]diazacyclopentadecin-6-yl)carbamate] | 1.01 to 5 | 1.01 to 5 |
| CC[C@@H]1C[C@H](C)CC/C=C\[C@@H]2C[C@@]2(C(=O)NS(=O)(=O)C2(C)CC2)NC(=O)[C@@H]2C[C@@H](Oc3nc(-c4ccc(OC(C)C)cn4)cc4cc(OC)ccc34)CN2C(=O)[C@H]1NC(=O)OC(C)(C)C(F)(F)F [Compound 5489, 1,1,1-trifluoro-2-methylpropan-2-yl((2R,6S,7R,9R,13aS,14aR,16aS,Z)-7-ethyl-2-((3-(5-isopropoxypyridin-2-yl)-6-methoxyisoquinolin-1-yl)oxy)-9-methyl-14a-(((1-methylcyclopropyl)sulfonyl)carbamoyl)-5,16-dioxo-1,2,3,5,6,7,8,9,10,11,13a,14,14a,15,16,16a-hexadecahydrocyclopropa[e]pyrrolo[1,2-a][1,4]diazacyclopentadecin-6-yl)carbamate] | 1.01 to 5 | 1.01 to 5 |
| [2H]C([2H])([2H])Oc1cc2ccnc(O[C@@H]3C[C@H]4C(=O)N[C@]5(C(=O)NS(=O)(=O)C6(C)CC6)C[C@H]5/C=C\CC[C@@H](C)C[C@@H](CC)[C@H](NC(=O)OC(C)(C)C(F)(F)F)C(=O)N4C3)c2cc1F [Compound 5503] | 0.51 to 1 | 1.01 to 5 |
